2 molecules from patent US20240085425A1, “BIOMARKER AND APPLICATION THEREOF” (ADLAI NORTYE BIOPHARMA CO., LTD., priority 2022, published 2024) can be followed below.

In test [1] the test system is non-phosphorylated β-catenin. Description: Western blot of non-phosphorylated β-catenin content in DU4475 cells. The class given is cell-based. The conditions noted are these: overnight, read-out: Non-phosphorylated β-catenin content inhibition IC50. The text has this:
The Wnt signaling pathway is a key pathway for abnormal tumor growth. In colon cancer, liver cancer, pancreatic cancer and other cancers, a large number of patients have abnormal activation of the Wnt signaling pathway. The Wnt signaling pathway depends on the fine balance of β-catenin protein level. When Wnt signaling is not activated, β-catenin is phosphorylated by CK1 and APC/Axin/GSK-3β complexes, and the β-catenin protein is kept at a low level through ubiquitin-dependent proteasome degradation. When the Wnt signaling pathway is activated, β-catenin maintains a stable state of non-phosphorylation, and non-phosphorylated β-catenin can be transported into the nucleus through Rac1 and other factors, and plays a transcriptional regulatory role by binding to LEF/TCF transcription factors in the nucleus, activates downstream target genes such as C-myc and Cyclin D1, and promotes cell proliferation. Therefore, abnormal activation of the Wnt signaling pathway in tumor cells will lead to abnormal proliferation of tumors. […]
Add 500 μL of the compound with the highest concentration shown in FIG. 1 to each well of the 6-well cell culture plate, and make a 10-fold gradient dilution of the compound concentration. […] Load the protein sample directly to the SDS-PAGE gel for electrophoresis separation, transfer the protein on the SDS-PAGE gel to the PVDF membrane; after the transfer was completed, the protein was blocked by Western blocking solution, then Rabbit anti-β-catenin non-phospho S37/After T41 (ab278503) was added and the protein was incubated at room temperature for one hour and washed, the content of non-phosphorylated β-catenin was detected by incubation with Goat Anti-Rabbit IgG H&L (HRP) (ab6721). […]

In another test the test system is Wnt pathway TCF/LEF. Nature of the test: Colo205-LUC-TCF/LEF luciferase reporter assay with or without MG132. To be noted: Colo205-LUC-TCF/LEF cells, 4 hours. The class given is cell-based. As for the experimental part: The Colo205-LUC-TCF/LEF cell line is a reporter tool cell stably transfected with the pGL4.49-LUC2-TCF/LEF vector, and its Wnt/β-catenin pathway is continuously activated. After adding inhibitor, the expression of firefly luciferase regulated by the TCF/LEF cis-element decreased, and after adding the detection substrate, the detected light signal decreased accordingly, thus the inhibitory effect of the compound was detected.
Add 100 μL of the compound AN10250484 at a maximum concentration of 20 μM to each well of the 96-well cell culture plate, and make a 3-fold gradient dilution of the compound concentration. Then inoculate each well with 10,000 stable Colo205-LUC-TCF/LEF cells containing 2 μM MG132 (Proteasome inhibitor) (MCE: HY-13259) or 10,000 Colo205-LUC-TCF/LEF cells containing control solvents, which were treated accordingly as positive and negative control wells. Place the cells in a 5% CO2 cell incubator and incubate at 37° C. for 4 hours. After 4 hours, remove the culture medium, add 100 μL of reagent (Promega) containing the corresponding firefly luciferase substrate to each well, and measure the luciferase reporter gene activity. Use SpectraMax to read the luminescence intensity in full-wavelength mode.
(In a reporter assay the amount or activity of a reporter protein is the signal.)

By IC50 is commonly meant the concentration that gives 50% inhibition. Regarding `[2H]C([2H])([2H])N1c2nc(NCc3ccc(Oc4cnc(C(F)(F)F)nc4)nc3)nc3c2N(CCC3)C(=O)[C@]1(C)CO` [AN10250399], the IC50 in test [1] is 0.157 µM.

As to `Cc1nc(C(F)(F)F)ncc1Oc1ccc(CNc2nc(C)c3c(n2)N(C)[C@@H](C)C(=O)N3)cn1` [AN10250484], the IC50 in test [1] was 0.029 µM. In addition, in the test on Wnt pathway TCF/LEF (2 μM MG132, FIG. 2), the “Inhibitory effect of the compound on the transcription of TCF/LEF after adding MG132” value is given as “significantly reduced”. The “Transcriptional activity of Wnt pathway TCF/LEF (luciferase reporter), in words” value in the test with Wnt pathway TCF/LEF (control solvent, FIG. 2) was “inhibiting Wnt pathway TCF/LEF”.
